Columns and labels:
LRRK2 [1] = biological target: T1, LRRK2 (Homo sapiens, UniProt Q5S007, D2017A); details: cited from earlier work
T1 construct: expressed in transfected cells; host or cells: HEK293 Flp-in T-REx, doxycycline-induced

LRRK2 [2] = biological target: T2, LRRK2 (Homo sapiens, UniProt Q5S007); assay: Immunoblot of LRRK2 phosphosites after GFP immunoprecipitation from HEK293 T-REx cells expressing GFP-LRRK2 variants; type: cell-based; details: T-REx cells expressing active LRRK2; 1 μM LRRK2-IN1 for 90 minutes
Procedure: (§1) Protein concentrations were determined using the Bradford method with BSA as the standard.

LRRK2 [3] = biological target: T1, LRRK2; assay: as above; type: cell-based; details: kinase inactive LRRK2 mutants; after LRRK2-IN1 treatment
Procedure: as §1

14-3-3 binding to LRRK2 = 14-3-3 binding to LRRK2 (Homo sapiens, UniProt Q5S007); assay: 14-3-3 overlay (far-western) assay of immunoprecipitated GFP-LRRK2; type: cell-based; details: 1 μM LRRK2-IN1 for 90 minutes
Procedure: The indicated variants of full-length GFP-tagged LRRK2 were expressed from a stable and inducible locus in HEK293 T-REx cells and subjected to immunoprecipitation analysis. Immunoprecipitates were subjected to immunoblot analysis with anti-GFP, and anti-phospho-Ser910 (αpS910), anti-phospho-Ser935 (αpS935), anti-phospho-Ser955 (αpS955), and anti-phospho-Ser973 (αpS973) antibodies. 14-3-3 binding to the LRRK2 variants was assessed by 14-3-3 far-western blot analyses. All blots were co-probed with phospho antibody and GFP (total protein) monoclonal antibody and analyzed by Odyssey® LI-COR analysis; a representative total GFP blot is shown.
The Nanotrap GFP-Trap_A matrix was from ChromoTek (GTA-20). […] LiCOR Dyelight labelled 14-3-3 protein (recombinant, His tagged BMH1, a kind gift of Dr. Dario Alessi) was prepared as per the manufacturer's instructions and used to detect 14-3-3 binding. […] Fluorescent secondary antibodies were from Li-COR (Lincoln Nebr.) or Rockland immunochemicals (Rockland Ill.) LRRK2 Immunoprecipitation assays. Cell lysates were prepared in Lysis buffer (1.0 ml per 15 cm dish) and subjected to immunoprecipitation with GFP-trapA beads at 10 ul beads per 1.0 ml lysate for 1 hr. […]

GFP-LRRK2 = assay: Fluorescence microscopy of GFP-LRRK2 localization in HEK-293 Flp-in T-REx cells; type: cell-based, human; details: wild-type GFP-LRRK2; 1 μM LRRK2-IN1 for 90 minutes
Procedure: T-REx cells lines harboring the indicated LRRK2 variants were induced for 24 h with 1 μg/ml doxycycline to induce expression of GFP-LRRK2. After induction, cells were exposed to vehicle control (DMSO) or 1 μM LRRK2-IN1 for 90 minutes, then fixed with paraformaldehyde and GFP fluorescence was imaged. Representative fluorescent micrographs of cultures for the indicated phosphosite mutants in the presence and absence of inhibitor are shown, localization analysis was performed at least three times. White scale bar represents 10 microns.
HEK-293 Flp-in T-REx cells harbouring GFP tagged LRRK2 and PD associated mutations were plated in 4-well glass bottom, CC2 coated chamber slides (Nunc). One day after plating, cells were induced with 1 μg/ml doxycycline and 24 hr later, cells were fixed in 4% paraformaldehyde buffered in phosphate buffered saline (purchased from Electron Microscopy Sciences, #15710). Cells were imaged under on a Nikon TiE microscope with a 60× objective.

LRRK2 [4] = biological target: T2, LRRK2; assay: Immunoprecipitation of FLAG-tagged wild-type LRRK2 from treated HEK 293 cells, in vitro autophosphorylation kinase assay, phosphosite immunoblot; type: cell-based; details: transient expression, 1 μM LRRK2-IN1 for 90 minutes
Description: Immunoprecipitates were extensively washed then subjected to in vitro kinase assay in the presence or absence of ATP,in the presence or absence of LRRK2-1N1. Reaction products were immunoblotted with antiphospho-Ser1491 (αpThr1491), anti-phospho-Ser910 (αpS910), anti-phospho-Ser935 (αpS935), anti-phospho-Ser955 (αpS955), and anti-phospho-Ser973 (αpS973) antibodies.
Immunoprecipitation Kinase Assay conditions. Wild-type LRRK2 was transiently expressed in HEK293 cells using polyethylenimine for approximately 36 hours, then cells were treated with DMSO or 1 μM LRRK2-IN1 for 90 minutes. Lysates were then subjected to immunoprecipitation with anti-FLAG M2 agarose at a ratio of 1 μl beads per 100 μg of lysate for 2 hours.

LRRK2 [5] = assay: Western blot of LRRK2 phosphorylation sites, FLAG tagged LRRK2 in HEK293 T-Rex cells (FIG. 4); type: cell-based, human; details: kinase dead and inhibitor resistant mutant samples
Description: Full length, FLAG tagged, wild-type or mutant LRRK2 (as indicated in FIG. 4) was expressed from a stable/inducible locus of HEK293 T-Rex cells (Invitrogen).

T2 sequence (Q5S007 whole entry): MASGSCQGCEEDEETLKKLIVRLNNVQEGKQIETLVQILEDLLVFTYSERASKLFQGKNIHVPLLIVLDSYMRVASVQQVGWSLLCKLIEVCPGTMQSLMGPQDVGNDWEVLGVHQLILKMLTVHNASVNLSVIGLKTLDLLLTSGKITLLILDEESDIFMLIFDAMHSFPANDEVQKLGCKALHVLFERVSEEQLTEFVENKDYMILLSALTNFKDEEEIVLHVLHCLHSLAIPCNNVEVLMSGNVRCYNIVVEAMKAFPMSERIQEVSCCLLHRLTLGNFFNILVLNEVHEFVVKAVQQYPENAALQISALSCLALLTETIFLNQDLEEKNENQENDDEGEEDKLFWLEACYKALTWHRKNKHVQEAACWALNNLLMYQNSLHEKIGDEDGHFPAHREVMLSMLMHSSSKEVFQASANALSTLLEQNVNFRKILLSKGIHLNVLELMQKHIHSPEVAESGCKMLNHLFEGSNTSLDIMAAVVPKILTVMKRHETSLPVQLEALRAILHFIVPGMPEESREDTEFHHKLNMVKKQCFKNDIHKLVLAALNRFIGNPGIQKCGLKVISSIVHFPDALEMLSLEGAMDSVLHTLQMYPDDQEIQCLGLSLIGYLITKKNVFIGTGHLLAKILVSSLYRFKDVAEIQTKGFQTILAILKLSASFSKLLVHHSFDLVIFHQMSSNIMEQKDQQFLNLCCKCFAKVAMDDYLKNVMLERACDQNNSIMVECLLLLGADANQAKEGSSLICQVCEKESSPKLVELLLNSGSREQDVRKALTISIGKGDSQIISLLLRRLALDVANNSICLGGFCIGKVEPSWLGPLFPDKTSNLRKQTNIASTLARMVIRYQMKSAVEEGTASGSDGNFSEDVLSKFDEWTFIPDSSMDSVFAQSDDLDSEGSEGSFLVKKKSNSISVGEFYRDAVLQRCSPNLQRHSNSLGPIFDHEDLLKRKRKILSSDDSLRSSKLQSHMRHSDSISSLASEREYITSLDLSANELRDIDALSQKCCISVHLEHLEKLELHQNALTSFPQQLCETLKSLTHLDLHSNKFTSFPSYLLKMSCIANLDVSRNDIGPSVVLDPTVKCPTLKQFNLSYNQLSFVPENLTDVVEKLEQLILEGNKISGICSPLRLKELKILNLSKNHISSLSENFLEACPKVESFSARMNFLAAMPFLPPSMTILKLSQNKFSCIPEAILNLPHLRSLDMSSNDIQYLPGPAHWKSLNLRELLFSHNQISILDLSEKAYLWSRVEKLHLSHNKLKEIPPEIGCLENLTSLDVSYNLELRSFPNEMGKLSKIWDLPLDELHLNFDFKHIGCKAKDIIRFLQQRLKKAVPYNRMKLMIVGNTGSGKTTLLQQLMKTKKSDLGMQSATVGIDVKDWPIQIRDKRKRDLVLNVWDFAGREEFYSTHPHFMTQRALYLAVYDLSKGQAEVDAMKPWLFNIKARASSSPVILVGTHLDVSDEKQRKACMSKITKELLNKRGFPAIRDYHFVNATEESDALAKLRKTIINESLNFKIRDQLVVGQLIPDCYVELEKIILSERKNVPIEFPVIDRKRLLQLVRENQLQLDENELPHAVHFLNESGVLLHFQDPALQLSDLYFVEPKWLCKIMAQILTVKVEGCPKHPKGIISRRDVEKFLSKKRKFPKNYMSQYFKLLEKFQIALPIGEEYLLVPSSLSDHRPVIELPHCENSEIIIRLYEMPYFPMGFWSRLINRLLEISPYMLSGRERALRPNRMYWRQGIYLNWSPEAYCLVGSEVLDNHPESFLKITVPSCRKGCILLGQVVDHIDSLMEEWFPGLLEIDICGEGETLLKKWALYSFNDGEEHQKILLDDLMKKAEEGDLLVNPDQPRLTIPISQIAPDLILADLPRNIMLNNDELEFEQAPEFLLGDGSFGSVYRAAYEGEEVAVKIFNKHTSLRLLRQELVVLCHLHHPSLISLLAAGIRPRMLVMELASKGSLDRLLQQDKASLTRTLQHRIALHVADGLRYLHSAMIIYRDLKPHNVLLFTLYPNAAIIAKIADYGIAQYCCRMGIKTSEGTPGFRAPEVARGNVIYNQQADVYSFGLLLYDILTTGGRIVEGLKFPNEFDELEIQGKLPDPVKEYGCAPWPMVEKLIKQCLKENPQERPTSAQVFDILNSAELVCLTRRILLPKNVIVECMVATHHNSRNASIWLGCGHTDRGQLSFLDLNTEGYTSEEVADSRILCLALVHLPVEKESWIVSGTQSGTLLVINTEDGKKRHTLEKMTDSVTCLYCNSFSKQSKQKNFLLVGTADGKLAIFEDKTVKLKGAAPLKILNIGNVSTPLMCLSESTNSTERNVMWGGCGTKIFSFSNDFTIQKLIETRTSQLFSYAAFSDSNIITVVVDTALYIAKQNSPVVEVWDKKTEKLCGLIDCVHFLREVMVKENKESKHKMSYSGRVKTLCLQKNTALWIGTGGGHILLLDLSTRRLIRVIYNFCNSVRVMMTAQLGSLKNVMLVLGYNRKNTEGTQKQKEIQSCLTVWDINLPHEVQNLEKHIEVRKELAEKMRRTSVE
T1 sequence (Q5S007 whole entry D2017A): as the sequence (Q5S007 whole entry) above, with D2017A counted along it
Chain of 14-3-3 binding to LRRK2 (Q5S007 whole entry): as the sequence (Q5S007 whole entry) above

SMILES	basal level of LRRK2 phosphorylation at 910/935 in kinase inactive mutants (LRRK2 [1])	phosphorylation of Serines 910/935 (LRRK2 [2])	phosphorylation of Serines 955 and 973 (LRRK2 [2])	phosphorylation of Serines 910 and 935 or 955 and 973 in kinase inactive mutants (LRRK2 [3])	direct 14-3-3 association with LRRK2 (14-3-3 binding to LRRK2)	localization of GFP tagged LRRK2 (GFP-LRRK2)	phosphorylation of Ser910, Ser935, Ser955 and Ser973 of FLAG tagged wild-type LRRK2 (LRRK2 [4])	specificity of the inhibitor effects on phosphorylation of serines 955 and 973 (LRRK2 [5])
Cc1cncc2cccc(S(=O)(=O)N3CCCNC[C@@H]3C)c12 [H-1152]	did not perturb							
COc1cc(C(=O)N2CCC(N3CCN(C)CC3)CC2)ccc1Nc1ncc2c(n1)N(C)c1ccccc1C(=O)N2C [LRRK2-IN1]		complete dephosphorylation	dephosphorylation	no change was observed	reduced direct 14-3-3 association	re-localization of the GFP tagged enzyme to intracellular puncta, large accumulations and microtubule like structures	dephosphorylated at the corresponding residues	specific to LRRK2

From patent US9417239B2, “Assay to determine LRRK2 activity in parkinson's disease” (PARKINSON'S INSTITUTE, priority 2011, dated 2016)
